# Source: patent publication US9433621B2, “Substituted pyridine and pyrimidine derivatives and their use in treating viral infections” (Merck Sharp & Dohme Corp., priority 2010, dated 2016)
# Read-outs that look alike come from different tables or passages of the source.
# System: HCV replicon
# Assay: Cell-Based HCV Replicon Assay
# Settings: Hepatitis C virus, HCV Replicon assay, Table VI, read-out: EC90
# Outline: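 EC50 and EC90 taken from sigmoid fits of ΔCT (5B minus GAPDH) as the concentrations raising ΔCT by 1 and 3.2 over baseline, via multiplex real-time RT-PCR on lysates after 3 days. Replicon cells at 5000/well; 10 two-fold dilutions from 25–1 μM, 0.5% DMSO, 10% FBS.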
SMILES,EC90 (EC90 range) [nM],EC90 (EC90 given as numeric bound) [nM]
Cc1nc(NCC(C)C)nc(N[C@@H]2C[C@H](C(C)(F)F)[C@@H](O)[C@H]2O)c1-c1nc2c(C3CC3)nccc2s1 [Example 5175],< 500,–
Cc1nc(NCC(C)(C)C)nc(N[C@@H]2C[C@H](C(C)(F)F)[C@@H](O)[C@H]2O)c1-c1nc2c(C3CC3)nccc2s1 [Example 5176],< 500,–
Cc1nc(NCC2CC(F)(F)C2)nc(N[C@@H]2C[C@H](C(C)(F)F)[C@@H](O)[C@H]2O)c1-c1nc2c(C3CC3)nccc2s1 [Example 5177],< 500,–
Cc1nc(NC2CC2)nc(N[C@@H]2C[C@H](C(F)F)[C@@H](O)[C@H]2O)c1-c1nc2c(C3CC3)nccc2s1 [Example 5178],< 500,–
CCCNc1nc(C)c(-c2nc3c(C4CC4)nccc3s2)c(N[C@@H]2C[C@H](C(F)F)[C@@H](O)[C@H]2O)n1 [Example 5179],< 500,–
Cc1nc(NCC(C)C)nc(N[C@@H]2C[C@H](C(F)F)[C@@H](O)[C@H]2O)c1-c1nc2c(C3CC3)nccc2s1 [Example 5180],< 500,–
Cc1nc(NCC(C)(C)C)nc(N[C@@H]2C[C@H](C(F)F)[C@@H](O)[C@H]2O)c1-c1nc2c(C3CC3)nccc2s1 [Example 5181],< 500,–
Cc1nc(NCC2CC(F)(F)C2)nc(N[C@@H]2C[C@H](C(F)F)[C@@H](O)[C@H]2O)c1-c1nc2c(C3CC3)nccc2s1 [Example 5182],< 500,–
Cc1nc(NCC2CCC2)nc(N[C@@H]2C[C@H](C(C)(F)F)[C@@H](O)[C@H]2O)c1-c1nc2c(C3CC3)nccc2s1 [Example 5183],< 500,–
Cc1nc(N[C@H](C)C2CCC2)nc(N[C@@H]2C[C@H](C(C)(F)F)[C@@H](O)[C@H]2O)c1-c1nc2c(C3CC3)nccc2s1 [Example 5184],< 500,–
Cc1nc(NCC2CCC2)nc(N[C@@H]2C[C@H](C(F)F)[C@@H](O)[C@H]2O)c1-c1nc2c(C3CC3)nccc2s1 [Example 5185],< 500,–
Cc1nc(N[C@H](C)C2CCC2)nc(N[C@@H]2C[C@H](C(F)F)[C@@H](O)[C@H]2O)c1-c1nc2c(C3CC3)nccc2s1 [Example 5186],< 500,–
COc1nc(C)c(-c2nc3c(C4CC4)nccc3s2)c(N[C@@H]2C[C@H](C(C)(F)F)[C@@H](O)[C@H]2O)n1 [Example 5187],5000 to 25000,–
Cc1nc(N)nc(N[C@@H]2C[C@H](C(C)(F)F)[C@@H](O)[C@H]2O)c1-c1nc2c(C3CC3)nccc2s1 [Example 5188],< 500,–
C#CCCNc1nc(C)c(-c2nc3c(C4CC4)nccc3s2)c(N[C@@H]2C[C@H](C(C)(F)F)[C@@H](O)[C@H]2O)n1 [Example 5189],< 500,–
Cc1nc(N)nc(N[C@@H]2C[C@H](C(F)F)[C@@H](O)[C@H]2O)c1-c1nc2c(C3CC3)nccc2s1 [Example 5190],< 500,–
Cc1nc(NCC2(C)CC2)nc(N[C@@H]2C[C@H](C(F)F)[C@@H](O)[C@H]2O)c1-c1nc2c(C3CC3)nccc2s1 [Example 5191],< 500,–
Cc1nc(NCCC2CC2)nc(N[C@@H]2C[C@H](C(F)F)[C@@H](O)[C@H]2O)c1-c1nc2c(C3CC3)nccc2s1 [Example 5192],< 500,–
Cc1nc(NCCC(C)C)nc(N[C@@H]2C[C@H](C(F)F)[C@@H](O)[C@H]2O)c1-c1nc2c(C3CC3)nccc2s1 [Example 5193],< 500,–
CSCCNc1nc(C)c(-c2nc3c(C4CC4)nccc3s2)c(N[C@@H]2C[C@H](C(F)F)[C@@H](O)[C@H]2O)n1 [Example 5194],< 500,–

SMILES,EC90 (EC90 range) [nM],EC90 (EC90 given as numeric bound) [nM]
COC1(CNc2nc(C)c(-c3nc4c(C)nccc4s3)c(N[C@@H]3C[C@H](C(C)(C)O)[C@@H](O)[C@H]3O)n2)CCCCC1 [Example 5195],< 500,–
CCC(CNc1nc(C)c(-c2nc3c(C)nccc3s2)c(N[C@@H]2C[C@H](C(C)(C)O)[C@@H](O)[C@H]2O)n1)OC (stereo partly shown) [Example 5196],< 500,–
Cc1nc(NC2(CS(=O)(=O)C(C)(C)C)CCCCC2)nc(N[C@@H]2C[C@H](C(C)(C)O)[C@@H](O)[C@H]2O)c1-c1nc2c(C)nccc2s1 [Example 5197],–,> 1000
COCC1(Nc2nc(C)c(-c3nc4c(C)nccc4s3)c(N[C@@H]3C[C@H](C(C)(C)O)[C@@H](O)[C@H]3O)n2)CCCCC1 [Example 5198],–,> 1000
Cc1nc(NCC2CC2)nc(NC2(CO)CCCCC2)c1-c1nc2c(C)nccc2s1 [Example 5199],< 500,–
COCCNc1nc(C)c(-c2nc3c(C)nccc3s2)c(NC2(CO)CCCCC2)n1 [Example 5200],< 500,–
COCC1(Nc2nc(NCC3CC3)nc(C)c2-c2nc3c(C)nccc3s2)CCCCC1 [Example 5201],< 500,–
Cc1nc(NC(=N)NCC2CC2)nc(N[C@@H]2C[C@H](C(C)(C)O)[C@@H](O)[C@H]2O)c1-c1nc2c(C)nccc2s1 [Example 5202],> 25000,–
Cc1nc(N[C@H](C)c2c(F)c(F)c(C)c(F)c2F)nc(N[C@@H]2C[C@H](CS(=O)(=O)c3ccc(F)cc3)[C@@H](O)[C@H]2O)c1-c1nc2c(C3CC3)nccc2s1 [Example 5203],500 to 5000,–
Cc1nc(N[C@H](C)c2c(F)c(F)c(C)c(F)c2F)nc(N[C@@H]2C[C@H](C(C)(C)O)[C@@H](O)[C@H]2O)c1-c1nc2c(C)nccc2s1 [Example 5204],< 500,–
Cc1nc(N[C@H](C)c2c(F)c(F)c(C)c(F)c2F)nc(N[C@@H]2C[C@H](CS(C)(=O)=O)[C@@H](O)[C@H]2O)c1-c1nc2c(C3CC3)nccc2s1 [Example 5205],< 500,–
Cc1nc(NCc2c(F)cccc2F)nc(N[C@@H]2C[C@H](COc3c(F)cccc3F)[C@@H](O)[C@H]2O)c1-c1nc2c(C)nccc2s1 [Example 5206],< 500,–
Cc1nc(N[C@H](C)C2CC2)nc(N[C@@H]2C[C@H](COc3c(F)cccc3F)[C@@H](O)[C@H]2O)c1-c1nc2c(C)nccc2s1 [Example 5207],< 500,–
Cc1nc(NCCCOCC(F)(F)F)nc(N[C@@H]2C[C@H](C(C)(C)O)[C@@H](O)[C@H]2O)c1-c1nc2c(C)nccc2s1 [Example 5208],< 500,–
Cc1nc(NCc2c(F)cccc2F)nc(N[C@@H]2C[C@H](CS(=O)(=O)c3cc(F)cc(F)c3)[C@@H](O)[C@H]2O)c1-c1nc2c(N)nccc2s1 [Example 5209],< 500,–
Cc1nc(NCC(F)(F)C(F)(F)C(F)(F)F)nc(N[C@@H]2C[C@H](C(C)(C)O)[C@@H](O)[C@H]2O)c1-c1nc2c(N)nccc2s1 [Example 5210],< 500,–
Cc1nc(N)nc(N[C@@H]2C[C@H](CS(=O)(=O)c3cc(F)cc(F)c3)[C@@H](O)[C@H]2O)c1-c1nc2c(N)nccc2s1 [Example 5211],< 500,–
Cc1nc(N)nc(N[C@@H]2C[C@H](COc3c(F)cccc3F)[C@@H](O)[C@H]2O)c1-c1nc2c(C)nccc2s1 [Example 5212],< 500,–
Cc1nc(NCC(F)(F)C(F)(F)F)nc(N[C@@H]2C[C@H](COc3c(F)cccc3F)[C@@H](O)[C@H]2O)c1-c1nc2c(C)nccc2s1 [Example 5213],< 500,–
COCCNc1nc(C)c(-c2nc3c(C)nccc3s2)c(N2C[C@H]3C[C@@H]2[C@H](O)[C@@H]3O)n1 [Example 5214],–,> 1000

SMILES,EC90 (EC90 range) [nM],EC90 (EC90 given as numeric bound) [nM]
COCCNc1nc(C)c(-c2nc3c(C)nccc3s2)c(NC2(C)CCC2)n1 [Example 5215],< 500,–
Cc1nc(NCc2c(F)cccc2F)nc(NC2(C)CCC2)c1-c1nc2c(C)nccc2s1 [Example 5216],< 500,–
CO[C@H]1COC[C@@H]1Nc1nc(C)c(-c2nc3c(C)nccc3s2)c(N[C@@H]2C[C@H](C(C)(C)O)[C@@H](O)[C@H]2O)n1 [Example 5218],< 500,–
Cc1nc(NCCO)nc(NC2(C)CCC2)c1-c1nc2c(C)nccc2s1 [Example 5219],< 500,–
Cc1nc(NCC(F)(F)C(F)(F)F)nc(NC2(C)CCC2)c1-c1nc2c(C)nccc2s1 [Example 5220],500 to 5000,–
Cc1nc(NCC(C)(F)F)nc(N[C@@H]2C[C@H](C(C)(C)O)[C@@H](O)[C@H]2O)c1-c1nc2c(C)nccc2s1 [Example 5221],< 500,–
Cc1nc(NCC2(O)CCCC2)nc(NC2(C)CCC2)c1-c1nc2c(C)nccc2s1 [Example 5222],< 500,–
Cc1nc(NCC(F)(F)C(F)(F)F)nc(N[C@@H]2C[C@H](CS(C)(=O)=O)[C@@H](O)[C@H]2O)c1-c1nc2c(C3CC3)nccc2s1 [Example 5223],< 500,–
Cc1nc(NCC(F)(F)C(F)(F)F)nc(N[C@@H]2C[C@H](CO)[C@@H](O)[C@H]2O)c1-c1nc2c(C3CC3)nccc2s1 [Example 5224],< 500,–
Cc1nc(NCC(F)(F)C(F)(F)F)nc(N[C@@H]2C[C@H](CS(=O)(=O)c3ccc(F)cc3)[C@@H](O)[C@H]2O)c1-c1nc2c(C3CC3)nccc2s1 [Example 5225],< 500,–
CO[C@@H](CNc1nc(C)c(-c2nc3c(C)nccc3s2)c(N[C@@H]2C[C@H](CO)[C@@H](O)[C@H]2O)n1)c1ccc(F)cc1 [Example 5226],< 500,–
CO[C@@H](CNc1nc(C)c(-c2nc3c(C4CC4)nccc3s2)c(N[C@@H]2C[C@H](CO)[C@@H](O)[C@H]2O)n1)c1ccc(F)cc1 [Example 5227],< 500,–
CO[C@@H](CNc1nc(C)c(-c2nc3cnccc3s2)c(N[C@@H]2C[C@H](C(C)(C)O)[C@@H](O)[C@H]2O)n1)c1ccc(F)cc1 [Example 5228],< 500,–
CO[C@@H](CNc1nc(C)c(-c2nc3c(C)nccc3s2)c(N[C@@H]2C[C@H](C(C)(C)O)[C@@H](O)[C@H]2O)n1)c1ccc(F)cc1 [Example 5229],< 500,–
CO[C@@H](CNc1nc(C)c(-c2nc3c(C)nccc3s2)c(N[C@@H]2C[C@H](CO)[C@@H](O)[C@H]2O)n1)C(F)(F)F [Example 5230],< 500,–
CO[C@@H](CNc1nc(C)c(-c2nc3c(C4CC4)nccc3s2)c(N[C@@H]2C[C@H](CO)[C@@H](O)[C@H]2O)n1)C(F)(F)F [Example 5231],< 500,–
CO[C@@H](CNc1nc(C)c(-c2nc3c(C)nccc3s2)c(N[C@@H]2C[C@H](C(C)(C)O)[C@@H](O)[C@H]2O)n1)C(F)(F)F [Example 5232],< 500,–
CCO[C@@H](CNc1nc(C)c(-c2nc3c(C)nccc3s2)c(N[C@@H]2C[C@H](CO)[C@@H](O)[C@H]2O)n1)C(F)(F)F [Example 5233],< 500,–
